Tests used:
[1] = molecular target: T1, S-adenosylmethionine synthase isoform type-1 (Rattus norvegicus, UniProt P13444); assay: Compound was evaluated for its inhibitory activity against recombinant S-adenosyl L-Methionine synthetase (alpha-isoform) in rat liver
[2] = molecular target: T1, S-adenosylmethionine synthase isoform type-1; assay: Compound was evaluated for its inhibitory activity against recombinant S-adenosyl L-Methionine synthetase (alpha-isoform) in rat liver; No significant activity

T1 sequence (P13444 whole entry, canonical isoform): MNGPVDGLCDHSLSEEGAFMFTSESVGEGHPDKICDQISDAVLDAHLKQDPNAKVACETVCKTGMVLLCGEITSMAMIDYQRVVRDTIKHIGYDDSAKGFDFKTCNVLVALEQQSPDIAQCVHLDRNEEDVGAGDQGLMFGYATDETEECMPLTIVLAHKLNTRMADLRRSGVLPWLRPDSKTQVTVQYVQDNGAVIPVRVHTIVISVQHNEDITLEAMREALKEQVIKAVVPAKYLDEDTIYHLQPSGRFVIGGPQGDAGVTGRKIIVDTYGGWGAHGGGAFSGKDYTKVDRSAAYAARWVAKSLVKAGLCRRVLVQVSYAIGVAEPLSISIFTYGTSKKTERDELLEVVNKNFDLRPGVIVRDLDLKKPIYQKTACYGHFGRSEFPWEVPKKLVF

SMILES	Ki [1]	Ki [2]
CO/C=C\[C@H](N)C(=O)O	56 µM	
N[C@]1(C(=O)O)CCOC1	750 µM	Not Active
NC1(C(=O)O)CCOCC1	1000 µM	
NC1(C(=O)O)CCCC1 [CYCLOLEUCINE]	516 µM	
NC1(C(=O)O)CCSCC1	3000 µM	
N[C@]1(C(=O)O)CCSC1	1040 µM	Not Active
